Measurements from patent US7241902B2, “Allylmercaptocaptopril compounds and uses thereof” (Yeda Research and Development Co. Ltd., priority 2001, dated 2007).

Key:
[1] = molecular target: T1, angiotensin converting enzyme (Homo sapiens, UniProt P12821); assay: Angiotensin converting enzyme activity in vitro in reference serum (Carmel et al 1979); format: biochemical; conditions: serial dilutions added to a reference serum; FIG. 2
T1 construct: from tissue
Procedure: The activity of angiotensin-converting enzyme was assayed according to Carmel et al (1979).
In order to determine if CPSSA reacts in a similar way to captopril, which inhibits the activity of angiotensin converting enzyme, serial dilutions of CPSSA were prepared.

[2] = test system: Sprague-Dawley rats fed fructose-rich diet; assay: Fructose-rich diet rat model (Reaven's model): blood pressure, serum triglycerides, insulin, body weight; format: in vivo; conditions: for effect on serum insulin levels: FIG. 5
Procedure: In the present study, the effects of CPSSA and captopril on blood pressure, as well as serum levels of triglycerides and insulin, were compared. RESULTS
Model Sprague-Dawley male rates, five rats/group, 220–240 g body weight, were fed with a fructose-rich diet for three weeks, followed by two weeks of treatment with either CPSSA or captopril predissolved in the drinking water in doses of CPSSA of 40 and 57 mg/kg and 80 mg/kg captopril, together with the fructose-rich diet. The control group was fed only the fructose-rich diet. Measurements of body weight, blood pressure, serum levels of triglycerides and insulin were conducted at 0, 3, and 5 weeks into the treatment.

papain = molecular target: T2, papain (Carica papaya, UniProt P00784); assay: SH modification of papain (residual enzyme activity, benzoyl arginine-p-nitro anilide hydrolysis); format: biochemical
T2 sequence (P00784 134-345): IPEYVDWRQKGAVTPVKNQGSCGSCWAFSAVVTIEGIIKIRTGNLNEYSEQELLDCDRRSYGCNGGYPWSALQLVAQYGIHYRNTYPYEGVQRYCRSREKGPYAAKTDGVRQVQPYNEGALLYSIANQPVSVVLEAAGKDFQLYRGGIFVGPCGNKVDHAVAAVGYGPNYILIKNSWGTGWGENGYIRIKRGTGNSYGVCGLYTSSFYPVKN
Procedure: CPSSA (0–5 mM) modification of activated and gel-filtered papain was conducted at room temperature in 50 mM sodium acetate, 2 mM EDTA pH 6.1. The inhibited papain was reactivated with 5 mM reduced glutathione.
Activated papain was mixed with various concentrations of CPSSA for 10 minutes at room temperature in 50 mM sodium acetate, 2 mM EDTA buffer, pH 6.5. The residual enzyme activity was measured by monitoring the rate of hydrolysis of the substrate benzoyl arginine-p-nitro anilide at 382 nm.

[3] = two weeks in drinking water, CPSSA 40 and 57 mg/kg, captopril 80 mg/kg

T1 sequence (P12821 30-1232 limits assumed): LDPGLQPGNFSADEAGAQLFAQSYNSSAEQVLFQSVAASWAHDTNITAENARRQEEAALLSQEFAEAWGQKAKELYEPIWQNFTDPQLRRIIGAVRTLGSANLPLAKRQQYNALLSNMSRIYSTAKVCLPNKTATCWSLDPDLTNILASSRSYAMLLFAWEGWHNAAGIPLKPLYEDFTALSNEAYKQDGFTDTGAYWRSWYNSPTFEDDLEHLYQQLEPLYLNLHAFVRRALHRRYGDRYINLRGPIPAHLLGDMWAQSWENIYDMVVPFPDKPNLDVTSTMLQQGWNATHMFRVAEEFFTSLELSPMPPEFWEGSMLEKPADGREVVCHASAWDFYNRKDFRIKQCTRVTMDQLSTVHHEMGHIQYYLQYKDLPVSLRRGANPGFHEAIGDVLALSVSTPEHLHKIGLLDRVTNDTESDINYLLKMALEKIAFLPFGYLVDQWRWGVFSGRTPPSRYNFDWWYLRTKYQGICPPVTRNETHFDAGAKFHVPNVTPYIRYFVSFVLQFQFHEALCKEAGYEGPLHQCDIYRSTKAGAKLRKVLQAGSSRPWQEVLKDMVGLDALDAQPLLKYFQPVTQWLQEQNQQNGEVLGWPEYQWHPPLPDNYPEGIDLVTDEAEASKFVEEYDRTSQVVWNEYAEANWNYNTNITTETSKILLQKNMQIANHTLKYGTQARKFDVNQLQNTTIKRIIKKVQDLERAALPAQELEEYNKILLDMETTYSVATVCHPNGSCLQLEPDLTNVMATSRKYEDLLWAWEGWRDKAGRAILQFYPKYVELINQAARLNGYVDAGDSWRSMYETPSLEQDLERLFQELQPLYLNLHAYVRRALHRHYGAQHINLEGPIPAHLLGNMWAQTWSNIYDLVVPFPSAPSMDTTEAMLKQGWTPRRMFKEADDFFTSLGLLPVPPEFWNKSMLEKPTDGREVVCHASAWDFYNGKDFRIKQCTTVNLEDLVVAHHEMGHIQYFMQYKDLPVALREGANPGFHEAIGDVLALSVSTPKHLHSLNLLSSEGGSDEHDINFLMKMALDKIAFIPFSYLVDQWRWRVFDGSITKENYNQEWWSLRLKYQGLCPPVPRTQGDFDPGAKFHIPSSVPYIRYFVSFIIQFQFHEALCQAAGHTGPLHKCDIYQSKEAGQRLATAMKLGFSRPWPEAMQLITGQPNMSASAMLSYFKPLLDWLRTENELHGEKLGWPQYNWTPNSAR

Row | Compound | ACE inhibition profile compared with captopril [1] | inhibition of angiotensin converting enzyme activity [1] | activity in decreasing levels of triglycerides compared with captopril ([2]; CPSSA 40 and 57 mg/kg vs captopril 80 mg/kg, FIG. 4) | effect on body weight [2, 3] | effect on blood pressure ([2]; two weeks in drinking water, CPSSA 40 and 57 mg/kg, captopril 80 mg/kg, FIG. 3) | effect on serum levels of triglycerides ([2]; two weeks in drinking water, CPSSA 40 and 57 mg/kg, captopril 80 mg/kg, FIG. 4) | effect on serum insulin levels [2, 3] | reactivation of inactivated papain (papain; 5 mM reduced glutathione) | papain enzyme activity after incubation (papain; 10 minutes at room temperature, 50 mM sodium acetate, 2 mM EDTA, CPSSA 0-5 mM, FIG. 1) | degree of inhibition of papain (papain; various concentrations of CPSSA, FIG. 1)
1 | C=CCSSC[C@H](C)C(=O)N1CCC[C@H]1C(=O)O [CPSSA, S-allylmercaptocaptopril] | essentially does not differ from the inhibition profile obtained with captopril | concentration dependant | more active than captopril | No effects on body weight | significantly decreased blood pressure | reduced the serum levels of triglycerides | decreased serum insulin levels to normal values | could be restored by reduced glutathione | significant decrease of enzyme activity | concentration dependent
2 | C[C@H](CS)C(=O)N1CCC[C@H]1C(=O)O [captopril, D-3-mercapto-2-methylpropanoyl-L-proline] |  |  |  | No effects on body weight |  |  | decreased serum insulin levels to normal values |  |  | 
